Results taken from patent US8889671B2, “Compounds and methods for treating bacterial infections” (AstraZeneca AB, priority 2013, dated 2014).
≈ marks a conversion by molar mass, not a printed value. Where two headings read alike, the source gives them in different places.

Assays:
[1] = molecular target: Escherichia coli DNA gyrase A/B tetramer (Escherichia coli (strain K12), UniProt P0AES4+P0AES6); assay: DNA gyrase supercoiling activity fluorescence polarisation assay; format: biochemical; conditions: Eco Gyr FP Mean IC50, E. coli DNA gyrase supercoiling, 0.3 mM ATP
Summary of the method: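 Relaxed triplex-forming plasmid (130 micrograms/mL) supercoiled by 5 nM gyrase A/B tetramer in Tris-HCl pH 7.5 buffer with 4 mM MgCl2 and 0.3 mM ATP, ~30 min, ambient temperature. Quenched with 5′-BODIPY-FL triplex probe at pH 3.5; fluorescence anisotropy read after 60 min. IC50 by nonlinear regression against two control reactions.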

Klebsiella pneumoniae = assay: Susceptibility testing (MIC) Assay 2, broth microdilution; format: cell-based; conditions: clinical isolate, mucoid, read-out: Kpn MIC
Pseudomonas aeruginosa = assay: as above; format: cell-based; conditions: PAO1, read-out: Pae MIC
Haemophilus influenzae = assay: as above; format: cell-based; conditions: ATCC51907, Haemophilus influenzae, ATCC 51907, in vivo strain, read-out: Hin MIC
Escherichia coli = assay: as above; format: cell-based; conditions: K12, read-out: Eco MIC
Staphylococcus aureus = assay: Susceptibility testing (MIC) Assay 1, broth microdilution; format: cell-based; conditions: Staphylococcus aureus
Streptococcus pyogenes = assay: as above; format: cell-based; conditions: Streptococcus pyogenes, Streptococcus pyrgenes, in vivo strain; read-out: Spy MIC
Streptococcus pneumoniae = assay: as above; format: cell-based
[2] = Staphylococcus aureus in vivo strain, MSQS, read-out: Sau(d) MIC
[3] = in vivo strain, MRQR, read-out: Sau(e) MIC
[4] = in vivo strain (footnote b), read-out: Spn(b) MIC
[5] = in vivo strain (footnote c), read-out: Spn(c) MIC

Compound	IC50 [1]	MIC (Klebsiella pneumoniae)	MIC (Pseudomonas aeruginosa)	MIC (Haemophilus influenzae)	MIC (Escherichia coli)	MIC (Staphylococcus aureus; [2])	MIC (Staphylococcus aureus; [3])	MIC (Staphylococcus aureus; serum, read-out: Sau(f) MIC)	MIC (Streptococcus pyogenes)	MIC (Streptococcus pneumoniae; [4])	MIC (Streptococcus pneumoniae; [5])
C[C@@H]1CN2c3c(cc4c(N5C(=O)OC[C@@H]5C(F)F)noc4c3F)CC3(C(=O)NC(=O)NC3=O)[C@H]2[C@H](C)O1 [Example 51]	430 nM	100 µM (≈ 52.3 µg/mL)	> 200 µM	0.39 µM (≈ 0.204 µg/mL)	12 µM (≈ 6.28 µg/mL)	0.28 µM (≈ 0.147 µg/mL)	0.55 µM (≈ 0.288 µg/mL)	0.78 µM (≈ 0.408 µg/mL)	0.55 µM (≈ 0.288 µg/mL)	0.78 µM (≈ 0.408 µg/mL)	0.78 µM (≈ 0.408 µg/mL)
C[C@@H]1CN2c3c(cc4c(N5C(=O)OC[C@@H]5C5CC5)noc4c3F)CC3(C(=O)NC(=O)NC3=O)[C@H]2[C@H](C)O1 [Example 52]	900 nM	200 µM (≈ 103 µg/mL)	> 200 µM	0.78 µM (≈ 0.401 µg/mL)	25 µM (≈ 12.8 µg/mL)	0.78 µM (≈ 0.401 µg/mL)	1.6 µM (≈ 0.822 µg/mL)	3.1 µM (≈ 1.59 µg/mL)	0.78 µM (≈ 0.401 µg/mL)	1.6 µM (≈ 0.822 µg/mL)	1.6 µM (≈ 0.822 µg/mL)
C[C@@H]1CN2c3c(cc4c(N5C[C@H](c6ccccn6)OC5=O)noc4c3F)CC3(C(=O)NC(=O)NC3=O)[C@H]2[C@H](C)O1 [Example 53, (2R,4S,4aS)-11-Fluoro-2,4-dimethyl-8-((R)-2-oxo-5-(pyridin-2-yl)oxazolidin-3-yl)-2,4,4a,6-tetrahydro-1H,1′H-spiro[isoxazolo[4,5-g][1,4]oxazino[4,3-a]quinoline-5,5′-pyrimidine]-2′,4′,6′(3′H)-trione]	380 nM	> 200 µM	> 200 µM	1.1 µM (≈ 0.606 µg/mL)	35 µM (≈ 19.3 µg/mL)	0.098 µM (≈ 0.0539 µg/mL)	0.39 µM (≈ 0.215 µg/mL)	0.55 µM (≈ 0.303 µg/mL)	0.464 µM (≈ 0.255 µg/mL)	0.39 µM (≈ 0.215 µg/mL)	0.55 µM (≈ 0.303 µg/mL)
C[C@@H]1CN2c3c(cc4c(N5C[C@@H](c6ccccn6)OC5=O)noc4c3F)CC3(C(=O)NC(=O)NC3=O)[C@H]2[C@H](C)O1 [Example 54, (2R,4S,4aS)-11-fluoro-2,4-dimethyl-8-((S)-2-oxo-5-(pyridin-2-yl)oxazolidin-3-yl)-2,4,4a,6-tetrahydro-1H,1′H-spiro[isoxazolo[4,5-g][1,4]oxazino[4,3-a]quinoline-5,5′-pyrimidine]-2′,4′,6′(3′H)-trione]	940 nM	> 200 µM	> 200 µM	3.1 µM (≈ 1.71 µg/mL)	100 µM (≈ 55.1 µg/mL)	0.39 µM (≈ 0.215 µg/mL)	0.78 µM (≈ 0.429 µg/mL)	1.6 µM (≈ 0.881 µg/mL)	0.78 µM (≈ 0.429 µg/mL)	0.78 µM (≈ 0.429 µg/mL)	0.78 µM (≈ 0.429 µg/mL)
C[C@@H]1CN2c3c(cc4c(N5C(=O)OC[C@H]5c5ccccn5)noc4c3F)CC3(C(=O)NC(=O)NC3=O)[C@H]2[C@H](C)O1 [Example 55, (2R,4S,4aS)-11-Fluoro-2,4-dimethyl-8-((R)-2-oxo-4-(pyridin-2-yl)oxazolidin-3-yl)-2,4,4a,6-tetrahydro-1H,1′H-spiro[isoxazolo[4,5-g][1,4]oxazino[4,3-a]quinoline-5,5′-pyrimidine]-2′,4′,6′(3′H)-trione]	150 nM	> 200 µM	> 200 µM	0.39 µM (≈ 0.215 µg/mL)	50 µM (≈ 27.5 µg/mL)	0.78 µM (≈ 0.429 µg/mL)	1.6 µM (≈ 0.881 µg/mL)	1.6 µM (≈ 0.881 µg/mL)	0.78 µM (≈ 0.429 µg/mL)	0.78 µM (≈ 0.429 µg/mL)	0.78 µM (≈ 0.429 µg/mL)
C[C@@H]1CN2c3c(cc4c(N5C(=O)OC[C@@H]5c5ccccn5)noc4c3F)CC3(C(=O)NC(=O)NC3=O)[C@H]2[C@H](C)O1 [Example 56, (2R,4S,4aS)-11-fluoro-2,4-dimethyl-8-((S)-2-oxo-4-(pyridin-2-yl)oxazolidin-3-yl)-2,4,4a,6-tetrahydro-1H,1′H-spiro[isoxazolo[4,5-g][1,4]oxazino[4,3-a]quinoline-5,5′-pyrimidine]-2′,4′,6′(3′H)-trione]	1900 nM	> 200 µM	> 200 µM	3.1 µM (≈ 1.71 µg/mL)	> 200 µM	3.1 µM (≈ 1.71 µg/mL)	6.2 µM (≈ 3.41 µg/mL)	25 µM (≈ 13.8 µg/mL)	3.1 µM (≈ 1.71 µg/mL)	6.2 µM (≈ 3.41 µg/mL)	6.2 µM (≈ 3.41 µg/mL)
C[C@@H]1CN2c3c(cc4c(N5C(=O)OC[C@H]5c5ccncc5)noc4c3F)CC3(C(=O)NC(=O)NC3=O)[C@H]2[C@H](C)O1 [Example 57, (2R,4S,4aS)-11-Fluoro-2,4-dimethyl-8-((R)-2-oxo-4-(pyridin-4-yl)oxazolidin-3-yl)-2,4,4a,6-tetrahydro-1H,1′H-spiro[isoxazolo[4,5-g][1,4]oxazino[4,3-a]quinoline-5,5′-pyrimidine]-2′,4′,6′(3′H)-trione]	760 nM	> 200 µM	> 200 µM	0.39 µM (≈ 0.215 µg/mL)	100 µM (≈ 55.1 µg/mL)	1.6 µM (≈ 0.881 µg/mL)	6.2 µM (≈ 3.41 µg/mL)	3.1 µM (≈ 1.71 µg/mL)	0.78 µM (≈ 0.429 µg/mL)	0.78 µM (≈ 0.429 µg/mL)	1.6 µM (≈ 0.881 µg/mL)
